Measured values as given in patent US10023570B2 (Array BioPharma, Inc., priority 2015, dated 2018).
Structures can show the parent of a compound that is named as a salt.

Molecular target: human KDR protein in HEK-293 cells (Homo sapiens (Human), UniProt P35968)
Test: KDR Cell Assay (phospho-KDR in HEK-293 cells expressing inducible KDR)
Format: cell-based
Details: pKDR Cell HEK 10% FBS IC50, HEK-293 cells expressing inducible KDR, VEGF stimulated
Method in brief: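 HEK-293 cells with inducible human KDR were treated with compound for 1 h in DMEM (0.25% DMSO final), then lysed. Phospho-KDR was quantified by Meso Scale immunoassay, expressed as percent of control, and IC50 taken where a 4-parameter logistic fit crossed 50 POC.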

Sequence of human KDR protein in HEK-293 cells (P35968 20-1356): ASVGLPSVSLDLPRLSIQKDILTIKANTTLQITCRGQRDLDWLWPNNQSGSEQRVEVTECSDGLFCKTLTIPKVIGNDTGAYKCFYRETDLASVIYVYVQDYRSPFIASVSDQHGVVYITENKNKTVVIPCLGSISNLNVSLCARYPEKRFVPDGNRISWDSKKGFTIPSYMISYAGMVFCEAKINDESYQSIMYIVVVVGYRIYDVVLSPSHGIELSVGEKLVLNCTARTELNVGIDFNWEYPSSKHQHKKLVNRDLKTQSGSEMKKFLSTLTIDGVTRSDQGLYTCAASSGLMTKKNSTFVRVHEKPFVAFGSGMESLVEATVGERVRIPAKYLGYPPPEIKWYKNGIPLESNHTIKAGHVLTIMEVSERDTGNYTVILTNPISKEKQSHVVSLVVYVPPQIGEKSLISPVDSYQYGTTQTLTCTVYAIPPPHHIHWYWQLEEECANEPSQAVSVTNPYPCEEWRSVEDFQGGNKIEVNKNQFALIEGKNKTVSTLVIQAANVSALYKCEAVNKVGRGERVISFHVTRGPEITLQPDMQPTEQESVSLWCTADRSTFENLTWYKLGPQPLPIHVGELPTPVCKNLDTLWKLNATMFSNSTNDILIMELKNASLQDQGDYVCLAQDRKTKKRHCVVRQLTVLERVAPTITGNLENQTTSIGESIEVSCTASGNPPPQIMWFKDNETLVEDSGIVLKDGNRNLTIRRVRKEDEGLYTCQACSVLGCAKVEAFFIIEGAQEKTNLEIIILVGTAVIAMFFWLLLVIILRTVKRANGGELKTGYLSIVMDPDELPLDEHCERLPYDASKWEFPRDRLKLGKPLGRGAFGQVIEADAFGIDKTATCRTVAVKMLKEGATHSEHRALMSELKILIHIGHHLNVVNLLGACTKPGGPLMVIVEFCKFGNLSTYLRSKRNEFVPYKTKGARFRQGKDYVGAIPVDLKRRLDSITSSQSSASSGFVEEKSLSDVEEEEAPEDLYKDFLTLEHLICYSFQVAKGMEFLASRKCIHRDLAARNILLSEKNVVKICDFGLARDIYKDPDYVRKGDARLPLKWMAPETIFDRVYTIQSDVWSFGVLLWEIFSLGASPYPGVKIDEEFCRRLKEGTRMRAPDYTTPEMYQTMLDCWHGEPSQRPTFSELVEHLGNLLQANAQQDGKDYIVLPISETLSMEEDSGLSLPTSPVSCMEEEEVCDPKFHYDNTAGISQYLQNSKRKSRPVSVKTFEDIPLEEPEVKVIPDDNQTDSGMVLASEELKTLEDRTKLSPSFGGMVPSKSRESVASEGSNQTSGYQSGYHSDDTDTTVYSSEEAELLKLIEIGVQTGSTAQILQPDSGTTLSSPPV

SMILES | IC50
Cn1cc(-c2cc(-c3ccc(N4CCN(C(=O)N5CC6C(C5)C6(C)C)CC4)nc3)c3c(C#N)cnn3c2)cn1 (centres unmarked) [Example 384, 4-(6-(4-(6,6-dimethyl-3-azabicyclo[3.1.0]hexane-3-carbonyl)piperazin-1-yl)pyridin-3-yl)-6-(1-methyl-1H-pyrazol-4-yl)pyrazolo[1,5-a]pyridine-3-carbonitrile] | 1040 nM
CN(C(=O)N1CCN(c2ccc(-c3cc(-c4cnn(C)c4)cn4ncc(C#N)c34)cn2)CC1)C1CC1 [Example 386, 4-(5-(3-cyano-6-(1-methyl-1H-pyrazol-4-yl)pyrazolo[1,5-a]pyridine-4-yl)pyridin-2-yl)-N-cyclopropyl-N-methylpiperazine-1-carboxamide 2,2,2-trifluoroacetate] | 1410 nM
Cn1cc(-c2cc(-c3ccc(N4CCN(C(=O)N5CCC(C(F)(F)F)C5)CC4)nc3)c3c(C#N)cnn3c2)cn1 (centres unmarked) [Example 391, 6-(1-methyl-1H-pyrazol-4-yl)-4-(6-(4-(3-(trifluoromethyl)pyrrolidine-1-carbonyl)piperazin-1-yl)pyridin-3-yl)pyrazolo[1,5-a]pyridine-3-carbonitrile] | 986 nM
COCCN1CCN(c2ccc(-c3cc(-c4cnn(C)c4)cn4ncc(C#N)c34)cn2)CC1 [Example 396, 4-(6-(4-(2-methoxyethyl)piperazin-1-yl)pyridin-3-yl)-6-(1-methyl-1H-pyrazol-4-yl)pyrazolo[1,5-a]pyridine-3-carbonitrile] | 1460 nM
CCOCCN1CCN(c2ccc(-c3cc(-c4cnn(C)c4)cn4ncc(C#N)c34)cn2)CC1 [Example 397, 4-(6-(4-(2-ethoxyethyl)piperazin-1-yl)pyridin-3-yl)-6-(1-methyl-1H-pyrazol-4-yl)pyrazolo[1,5-a]pyridine-3-carbonitrile] | 1500 nM
CCCN1CCN(c2ccc(-c3cc(-c4cnn(C)c4)cn4ncc(C#N)c34)cn2)CC1 [Example 408, 6-(1-methyl-1H-pyrazol-4-yl)-4-(6-(4-propylpiperazin-1-yl)pyridin-3-yl)pyrazolo[1,5-a]pyridine-3-carbonitrile] | 1300 nM
CCN1CCN(c2ccc(-c3cc(-c4cnn(C)c4)cn4ncc(C#N)c34)cn2)CC1 [Example 409, 4-(6-(4-ethylpiperazin-1-yl)pyridin-3-yl)-6-(1-methyl-1H-pyrazol-4-yl)pyrazolo[1,5-a]pyridine-3-carbonitrile] | 1670 nM
CC(C)N1CCN(c2ccc(-c3cc(-c4cnn(C)c4)cn4ncc(C#N)c34)cn2)CC1 [Example 410, 4-(6-(4-isopropylpiperazin-1-yl)pyridin-3-yl)-6-(1-methyl-1H-pyrazol-4-yl)pyrazolo[1,5-a]pyridine-3-carbonitrile] | 1630 nM
Cn1cc(-c2cc(-c3ccc(N4CCN(CC(F)F)CC4)nc3)c3c(C#N)cnn3c2)cn1 [Example 418, 4-(6-(4-(2,2-difluoroethyl)piperazin-1-yl)pyridin-3-yl)-6-(1-methyl-1H-pyrazol-4-yl)pyrazolo[1,5-a]pyridine-3-carbonitrile] | 1510 nM
Cn1cc(-c2cc(-c3ccc(N4CCN(CC(F)(F)F)CC4)nc3)c3c(C#N)cnn3c2)cn1 [Example 419, 6-(1-methyl-1H-pyrazol-4-yl)-4-(6-(4-(2,2,2-trifluoroethyl)piperazin-1-yl)pyridin-3-yl)pyrazolo[1,5-a]pyridine-3-carbonitrile] | 1900 nM
C[C@H](c1ccccc1)N1CCN(c2ccc(-c3cc(-c4cnn(C)c4)cn4ncc(C#N)c34)cn2)CC1 [Example 421, (R)-6-(1-methyl-1H-pyrazol-4-yl)-4-(6-(4-(1-phenylethyl)piperazin-1-yl)pyridin-3-yl)pyrazolo[1,5-a]pyridine-3-carbonitrile dihydrochloride] | 1620 nM
Cn1cc(-c2cc(-c3ccc(N4CCN(Cc5cncc(F)c5)CC4)nc3)c3c(C#N)cnn3c2)cn1 [Example 423, 4-(6-(4-((5-fluoropyridin-3-yl)methyl)piperazin-1-yl)pyridin-3-yl)-6-(1-methyl-1H-pyrazol-4-yl)pyrazolo[1,5-a]pyridine-3-carbonitrile] | 1370 nM
Cn1cc(-c2cc(-c3ccc(N4CCN(Cc5ccc(F)cc5F)CC4)nc3)c3c(C#N)cnn3c2)cn1 [Example 426, 4-(6-(4-(2,4-difluorobenzyl)piperazin-1-yl)pyridin-3-yl)-6-(1-methyl-1H-pyrazol-4-yl)pyrazolo[1,5-a]pyridine-3-carbonitrile] | 1250 nM
Cn1cc(-c2cc(-c3ccc(N4CCN(Cc5cc(F)ccc5F)CC4)nc3)c3c(C#N)cnn3c2)cn1 [Example 429, 4-(6-(4-(2,5-difluorobenzyl)piperazin-1-yl)pyridin-3-yl)-6-(1-methyl-1H-pyrazol-4-yl)pyrazolo[1,5-a]pyridine-3-carbonitrile] | 1560 nM

Now those with a lower IC50, led by results:

IC50 | SMILES
951 nM | CC(C)C1CCN(C(=O)N2CCN(c3ccc(-c4cc(-c5cnn(C)c5)cn5ncc(C#N)c45)cn3)CC2)C1 (centres unmarked) [Example 390, 4-(6-(4-(3-isopropylpyrrolidine-1-carbonyl)piperazin-1-yl)pyridin-3-yl)-6-(1-methyl-1H-pyrazol-4-yl)pyrazolo[1,5-a]pyridine-3-carbonitrile]
942 nM | C[C@@H](c1ccccc1)N1CCN(c2ccc(-c3cc(-c4cnn(C)c4)cn4ncc(C#N)c34)cn2)CC1 [Example 422, (S)-6-(1-methyl-1H-pyrazol-4-yl)-4-(6-(4-(1-phenylethyl)piperazin-1-yl)pyridine-3-yl)pyrazolo[1,5-a]pyridine-3-carbonitrile dihydrochloride]
937 nM | Cn1cc(-c2cc(-c3ccc(N4CCN(Cc5ccccc5F)CC4)nc3)c3c(C#N)cnn3c2)cn1 [Example 427, 4-(6-(4-(2-fluorobenzyl)piperazin-1-yl)pyridin-3-yl)-6-(1-methyl-1H-pyrazol-4-yl)pyrazolo[1,5-a]pyridine-3-carbonitrile]
916 nM | Cn1cc(-c2cc(-c3ccc(N4CCN(Cc5ccc(Cl)cc5)CC4)nc3)c3c(C#N)cnn3c2)cn1 [Example 425, 4-(6-(4-(4-chlorobenzyl)piperazin-l-yl)pyridin-3-yl)-6-(1-methyl-1H-pyrazol-4-yl)pyrazolo[1,5-a]pyridine-3-carbonitrile]
880 nM | Cn1cc(-c2cc(-c3ccc(N4CCN(Cc5cccc(F)c5)CC4)nc3)c3c(C#N)cnn3c2)cn1 [Example 428, 4-(6-(4-(3-fluorobenzyl)piperazin-1-yl)pyridin-3-yl)-6-(1-methyl-1H-pyrazol-4-yl)pyrazolo[1,5-a]pyridine-3-carbonitrile]
857 nM | CCC1CCN(C(=O)N2CCN(c3ccc(-c4cc(-c5cnn(C)c5)cn5ncc(C#N)c45)cn3)CC2)C1 (centres unmarked) [Example 389, 4-(6-(4-(3-ethylpyrrolidine-1-carbonyl)piperazin-1-yl)pyridin-3-yl)-6-(1-methyl-1H-pyrazol-4-yl)pyrazolo[1,5-a]pyridine-3-carbonitrile]
828 nM | Cn1cc(-c2cc(-c3ccc(N4CCN(CCOC5CC5)CC4)nc3)c3c(C#N)cnn3c2)cn1 [Example 407, 4-(6-(4-(2-cyclopropoxyethyl)piperazin-1-yl)pyridin-3-yl)-6-(1-methyl-1H-pyrazol-4-yl)pyrazolo[1,5-a]pyridine-3-carbonitrile]
791 nM | Cn1cc(-c2cc(-c3ccc(N4CCN(Cc5cncc(Cl)c5)CC4)nc3)c3c(C#N)cnn3c2)cn1 [Example 430, 4-(6-(4-((5-chloropyridin-3-yl)methyl)piperazin-1-yl)pyridin-3-yl)-6-(1-methyl-1H-pyrazol-4-yl)pyrazolo[1,5-a]pyridine-3-carbonitrile]
692 nM | Cc1cc(C)nc(CN2CCN(c3ccc(-c4cc(-c5cnn(C)c5)cn5ncc(C#N)c45)cn3)CC2)n1 [Example 401, 4-(6-(4-((4,6-dimethylpyrimidin-2-yl)methyl)piperazin-1-yl)pyridin-3-yl)-6-(1-methyl-1H-pyrazol-4-yl)pyrazolo[1,5-a]pyridine-3-carbonitrile]
639 nM | COc1ccc(N(C)C(=O)N2CCN(c3ccc(-c4cc(-c5cnn(C)c5)cn5ncc(C#N)c45)cn3)CC2)cc1 [Example 383, 4-(5-(3-cyano-6-(1-methyl-1H-pyrazol-4-yl)pyrazolo[1,5-a]pyridine-4-yl)pyridin-2-yl)-N-(4-methoxyphenyl)-N-methylpiperazine-1-carboxamide]
630 nM | Cn1cc(-c2cc(-c3ccc(N4CCN(Cc5ccc(F)cc5)CC4)nc3)c3c(C#N)cnn3c2)cn1 [Example 424, 4-(6-(4-(4-fluorobenzyl)piperazin-1-yl)pyridin-3-yl)-6-(1-methyl-1H-pyrazol-4-yl)pyrazolo[1,5-a]pyridine-3-carbonitrile]
490 nM | Cn1cc(-c2cc(-c3ccc(N4CCN(CCc5ccccn5)CC4)nc3)c3c(C#N)cnn3c2)cn1 [Example 395, 6-(1-methyl-1H-pyrazol-4-yl)-4-(6-(4-(2-(pyridine-2-yl)ethyl)piperazin-1-yl)pyridin-3-yl)pyrazolo[1,5-a]pyridine-3-carbonitrile]
453 nM | Cn1cc(-c2cc(-c3ccc(N4CCN(CC5CC5)CC4)nc3)c3c(C#N)cnn3c2)cn1 [Example 394, 4-(6-(4-(cyclopropylmethyl)piperazin-1-yl)pyridin-3-yl)-6-(1-methyl-1H-pyrazol-4-yl)pyrazolo[1,5-a]pyridine-3-carbonitrile]
346 nM | Cn1cc(-c2cc(-c3ccc(N4CCN(C(=O)N5CCC(C6CC6)C5)CC4)nc3)c3c(C#N)cnn3c2)cn1 (centres unmarked) [Example 388, 4-(6-(4-(3-cyclopropylpyrrolidine-1-carbonyl)piperazin-1-yl)pyridin-3-yl)-6-(1-methyl-1H-pyrazol-4-yl)pyrazolo[1,5-a]pyridine-3-carbonitrile]
263 nM | Cn1cc(-c2cc(-c3ccc(N4CCN(CCc5ccccc5)CC4)nc3)c3c(C#N)cnn3c2)cn1 [Example 411, 6-(1-methyl-1H-pyrazol-4-yl)-4-(6-(4-phenethylpiperazin-1-yl)pyridin-3-yl)pyrazolo[1,5-a]pyridine-3-carbonitrile]
